Assay: Pharmacokinetics of EGCG after oral gavage to rats
Assay type: in vivo
Conditions: 100 mg/kg
Protocol: Groups of 10 200-g male rats were administered EGCG by oral gavage, in the form of the USLS prepared as in Example 3 (2.1 ml; 100 mg/kg body weight) or as an identical preparation of EGCG without USLS. Blood samples were collected at 5, 10, 30, 60, 120, and 480 minutes post administration. […] Within 5 minutes after oral administration, the USLS-sequestered compound produced a plasma concentration of 600 ng/ml and a peak plasma concentration of 605 ng/ml at 10 minutes post administration. The EGCG administered without sequestration in USLS produced a peak plasma concentration of only 150 ng/ml at 5 minutes post administration.
The pharmacokinetic parameters Cmax (maximum serum concentration), Tmax (time maximum serum concentration is reached), AUC (area under the curve), and Relative Bioavailability were determined from the plasma data and are presented in Table 1, below.

O=C(O[C@@H]1Cc2c(O)cc(O)cc2O[C@@H]1c1cc(O)c(O)c(O)c1)c1cc(O)c(O)c(O)c1 [EGCG control, Epigallocatechin gallate]
time of peak plasma concentration post administration: 5 min
peak plasma concentration of EGCG (FIG. 4): 150 ng/mL
AUC (0-240 min) (Table 1): 14,261
Cmax (maximum serum concentration) (Table 1): 116.57
Tmax (time maximum serum concentration is reached) (Table 1): 5

From patent US11298318B2, “One-step method for production of ultra-small lipid structures” (FOUNTAIN TECHNOLOGIES INTERNATIONAL, LLC, priority 2015, dated 2022)
